# US7371225B2, “Method for convection enhanced delivery of therapeutic agents” (The United States of America as represented by the …, priority 2002, dated 2008)
# Where two headings read alike, the source gives them in different places.
# Assays:
# putamen = system: putamen; parameters: species or system rhesus monkeys; conditions: rhesus monkey, in vivo
# Procedure: Anesthesia was induced with ketamine (10 mg/kg), xylazine (0.5 mg/kg), and thiopental sodium (1 mg/kg). The animals were secured in a monkey stereotactic frame (Kopf Instruments, Tujunga, Calif.). A Hamilton 32-gauge metal blunt tip needle connected to a 250 μl Hamilton syringe (Thompson Instruments, Chantilly, Va.) was stereotactically inserted in the center of the right putamen (anteroposterior 15.5 mm, mediolateral 12 mm and dorsoventral 24.5 mm relative to the tympanic canals and the mid-sagittal sinus)^15. After a delay of 90 minutes, the infusion was begun at 1.0 μl/min.
# For CT, 130 μl, 200 μl and 235 μl of the tracer IPA-BSA/^14C-BSA mixture (35-55 Iopanoic Acid/BSA, 61.3-80.4 mg/ml ^14C-BSA) was infused. […]
# CT and MRI images were analyzed in the MEDx software package (Sensor Systems, Inc., Sterling, Va.) running on a Sun workstation (Sun Microsystems, Inc., Palo Alto, Calif.). […] These were measured by volume segmentation using two different thresholds. Vd(1) was calculated as the volumes of distribution from CT and MRI containing at least 10% of the total increase in signal intensity due to the addition of contrast agent. A rectangular region of interest (ROI) over the infusion area was defined and in the corresponding site in the contralateral hemisphere, and the perfused maximal signal intensity (peak) and the unperfused maximal signal intensity (background) was measured. […]
# cerebral white matter [1] = experiment: CED of iopamidol in cerebral white matter with real-time CT-imaging; assay type: in vivo, primates (Macaca mulatta)
# Procedure: (§1) Four primates (Macaca mulatta) underwent CED of various volumes (total volume of 90 to 150 μl) of iopamidol (777 Da) in the cerebral white matter combined with CT-imaging during and after infusion (up to 5 days post-infusion), as well as quantitative autoradiography (QAR). Clinical observation (≦20 weeks) and histopathology were used to evaluate safety and toxicity.
# cerebral white matter [2] = conditions: in vivo
# Procedure: as §1
# [3] = system: sympathetic ganglia explants; conditions: cited from earlier work
# [4] = in vivo; cited from earlier work
compound,measurement,setting,value
"IPA-BSA: Iopanoic acid conjugated to BSA, surrogate tracer for CT",Mean Vd(1),putamen,3.44±0.74
same,Mean Vd(2),putamen,4.51±1.31
C[C@H](O)C(=O)Nc1c(I)c(C(=O)NC(CO)CO)c(I)c(C(=O)NC(CO)CO)c1I [iopamidol],Distribution of infusate identifiable post-infusion up to,cerebral white matter [1]; CT-imaging,up to 72 hours
same,Homogeneity of distribution of infusate,cerebral white matter [1]; CT-imaging,homogeneous
same,"Overall Vd:Vi ratio, mean±S.D.","cerebral white matter [1]; real-time CT-imaging, total volume 90 to 150 μl",4.1±0.7
same,Clinical or histopathologic evidence of toxicity,cerebral white matter [2],None of the animals had clinical or histopathologic evidence of toxicity
CCC(Cc1c(I)cc(I)c(N)c1I)C(=O)[O-].[Na+] (centres unmarked) [sodium iopanoate],Toxicity in tissue culture,[3]; 0.1 mM,vacuolization of fibroblasts
same,Toxicity in tissue culture,[3]; 1 mM,immediate death of sympathetic ganglia explants
CCC(Cc1c(I)cc(I)c(N)c1I)C(=O)O (centres unmarked) [iopanoic acid],Toxicity in tissue culture,[3]; 0.01 mM,No toxicity
same,Neurotoxicity in the clinical setting,[4],not to be neurotoxic
same,Side effects when used for imaging the gallbladder,[4],"rare side effects (acute renal insufficiency, acute thrombocytompenia)"
